# Measured values published in patent US8283361B2 (AstraZeneca AB, priority 2008, dated 2012).
# Biological target: S. aureus GyrB ATPase (Staphylococcus aureus, UniProt P0A0K8)
# Assay: biochemical
# Details: compound at 1 μM; one value per test if tested more than once; read-out: % Inhibition of S. aureus GyrB ATPase
# Procedure, shortened: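 IC50 values derive from 10-point titrations of compound (in DMSO). Phosphate formed from 250 μM ATP was quantified by acidic molybdate/malachite green after quenching.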
# Sequence of S. aureus GyrB ATPase (P0A0K8 whole entry): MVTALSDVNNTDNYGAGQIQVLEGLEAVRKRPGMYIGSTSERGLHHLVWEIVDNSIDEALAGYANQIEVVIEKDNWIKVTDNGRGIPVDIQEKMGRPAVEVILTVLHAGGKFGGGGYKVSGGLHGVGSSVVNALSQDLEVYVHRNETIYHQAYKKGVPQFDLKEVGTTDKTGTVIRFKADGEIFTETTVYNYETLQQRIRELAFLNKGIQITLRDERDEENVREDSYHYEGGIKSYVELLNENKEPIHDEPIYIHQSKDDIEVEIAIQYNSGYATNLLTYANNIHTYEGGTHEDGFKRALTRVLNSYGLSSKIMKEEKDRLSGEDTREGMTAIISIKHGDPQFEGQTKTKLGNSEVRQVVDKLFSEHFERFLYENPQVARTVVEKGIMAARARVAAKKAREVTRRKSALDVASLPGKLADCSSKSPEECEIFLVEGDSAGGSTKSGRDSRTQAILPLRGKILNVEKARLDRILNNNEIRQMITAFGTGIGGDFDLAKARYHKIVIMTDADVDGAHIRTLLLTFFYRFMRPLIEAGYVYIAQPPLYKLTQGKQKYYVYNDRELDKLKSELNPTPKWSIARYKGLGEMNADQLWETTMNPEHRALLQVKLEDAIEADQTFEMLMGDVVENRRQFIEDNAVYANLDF
# Sequence of S. aureus GyrB ATPase (P0AES4 whole entry, further chain): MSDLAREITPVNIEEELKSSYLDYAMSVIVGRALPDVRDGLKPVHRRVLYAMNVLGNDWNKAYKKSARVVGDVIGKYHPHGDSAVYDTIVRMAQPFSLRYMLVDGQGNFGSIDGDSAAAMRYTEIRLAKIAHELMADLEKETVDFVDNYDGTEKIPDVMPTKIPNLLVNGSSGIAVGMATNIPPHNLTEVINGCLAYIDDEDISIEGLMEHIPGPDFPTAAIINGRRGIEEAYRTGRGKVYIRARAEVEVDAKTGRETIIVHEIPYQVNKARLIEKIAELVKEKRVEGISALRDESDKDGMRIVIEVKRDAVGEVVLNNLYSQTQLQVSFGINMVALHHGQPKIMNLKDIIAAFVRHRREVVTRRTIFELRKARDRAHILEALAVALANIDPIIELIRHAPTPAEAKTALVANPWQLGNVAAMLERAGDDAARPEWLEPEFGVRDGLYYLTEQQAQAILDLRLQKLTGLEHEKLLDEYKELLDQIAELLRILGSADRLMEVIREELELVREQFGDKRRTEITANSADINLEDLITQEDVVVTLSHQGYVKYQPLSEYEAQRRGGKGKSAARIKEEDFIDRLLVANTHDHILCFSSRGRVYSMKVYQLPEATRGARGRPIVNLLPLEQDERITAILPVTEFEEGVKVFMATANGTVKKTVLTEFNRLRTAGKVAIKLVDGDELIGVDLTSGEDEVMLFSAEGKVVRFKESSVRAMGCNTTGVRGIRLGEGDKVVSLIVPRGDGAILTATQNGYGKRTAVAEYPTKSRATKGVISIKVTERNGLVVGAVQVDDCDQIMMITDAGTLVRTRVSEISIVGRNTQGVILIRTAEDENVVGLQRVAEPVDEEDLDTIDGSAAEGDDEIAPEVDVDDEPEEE
row,Structure (SMILES),inhibition at 1 µM
1,"CCNC(=O)Nc1cc(-c2nc(C(F)(F)F)cs2)c(-c2ccc3c(c2)c(=O)c(C(=O)O)cn3C2CCCN(C)C2)cn1 (stereo not shown) [Example 311, 6-(6-(3-ethylureido)-4-(4-(trifluoromethyl)thiazol-2-yl)pyridin-3-yl)-1-(1-methylpiperidin-3-yl)-4-oxo-1,4-dihydroquinoline-3-carboxylic acid]",100%
2,"CCNC(=O)Nc1cc(-c2nc(C(F)(F)F)cs2)c(-c2ccc3c(c2)c(=O)c(C(=O)O)cn3[C@H]2CCN(C)C2)cn1 [Example 312, (S)-6-(6-(3-ethylureido)-4-(4-(trifluoromethyl)thiazol-2-yl)pyridin-3-yl)-1-(1-methylpyrrolidin-3-yl)-4-oxo-1,4-dihydroquinoline-3-carboxylic acid]",105%
3,"CCNC(=O)Nc1cc(-c2nc(C(F)(F)F)cs2)c(-c2ccc3c(c2)c(=O)c(C(=O)O)cn3CC2CCCN(C)C2)cn1 (stereo not shown) [Example 313, 6-(6-(3-ethylureido)-4-(4-(trifluoromethyl)thiazol-2-yl)pyridin-3-yl)-1-((1-methylpiperidin-3-yl)methyl)-4-oxo-1,4-dihydroquinoline-3-carboxylic acid]",103%
4,"CCNC(=O)Nc1cc(-c2nc(C(F)(F)F)cs2)c(-c2ccc3c(c2)c(=O)c(C(=O)O)cn3[C@H]2CCCC[C@@H]2N)cn1 [Example 314, 1-((1S,2S)-2-aminocyclohexyl)-6-(6-(3-ethylureido)-4-(4-(trifluoromethyl)thiazol-2-yl)pyridin-3-yl)-4-oxo-1,4-dihydroquinoline-3-carboxylic acid]",114%
5,"CCNC(=O)Nc1cc(-c2nc(C(F)(F)F)cs2)c(-c2ccc3c(c2)c(=O)c(C(=O)O)cn3CCCO)cn1 [Example 320, 6-(6-(3-Ethylureido)-4-(4-(trifluoromethyl)thiazol-2-yl)pyridin-3-yl)-1-(3-hydroxy-propyl)-4-oxo-1,4-dihydro-quinoline-3-carboxylic acid]",98%
6,"CCNC(=O)Nc1cc(-c2nc(C(F)(F)F)cs2)c(-c2ccc3c(c2)c(=O)c(C(=O)O)cn3C2CCOCC2)cn1 [Example 321, 6-(6-(3-Ethylureido)-4-(4-(trifluoromethyl)thiazol-2-yl)-pyridin-3-yl)-4-oxo-1-(tetrahydro-2H-pyran-4-yl)-1,4dihydroquinoline-3-carboxylic acid]",100%
7,"CCNC(=O)Nc1cc(-c2nc(C(F)(F)F)cs2)c(-c2ccc3c(c2)c(=O)c(C(=O)O)cn3C2CCCCC2)cn1 [Example 322, 1-Cyclohexyl-6-(6-(3-ethylureido)-4-(4-(trifluoro-methyl)thiazol-2-yl)pyridin-3-yl)-4-oxo-1,4-dihydroquinoline-3-carboxylic acid]",96%
8,"CCNC(=O)Nc1cc(-c2nc(C(F)(F)F)cs2)c(-c2ccc3c(c2)c(=O)c(C(=O)O)cn3C2CCN(C)CC2)cn1 [Example 323, 6-(6-(3-Ethylureido)-4-(4-(trifluoromethyl)thiazol-2-yl)pyridin-3-yl)-1-(1-methyl-piperidin-4-yl)-4-oxo-1,4-dihydro-quinoline-3-carboxylic acid]",106%
9,"CCNC(=O)Nc1cc(-c2nc(C(F)(F)F)cs2)c(-c2ccc3c(c2)c(=O)c(C(=O)NCCOC)cn3C2CC2)cn1 [Example 325, 1-Cyclopropyl-6-(6-(3-ethylureido)-4-(4-(trifluoromethyl)thiazol-2-yl)pyridin-3-yl)-N-(2-methoxyethyl)-4-oxo-1,4-dihydroquinoline-3-carboxamide]",96%
10,"CCNC(=O)Nc1cc(-c2nc(C(F)(F)F)cs2)c(-c2ccc3c(c2)c(=O)c(C(=O)NC2CC2)cn3C2CC2)cn1 [Example 326, N,1-Dicyclopropyl-6-(6-(3-ethylureido)-4-(4-(trifluoromethyl)thiazol-2-yl)pyridin-3-yl)-4-oxo-1,4-dihydroquino-line-3-carboxamide]",97%
11,"CCNC(=O)Nc1cc(-c2nc(C(F)(F)F)cs2)c(-c2ccc3c(c2)c(=O)c(C(=O)NC(COC)COC)cn3C2CC2)cn1 [Example 327, 1-Cyclopropyl-N-(1,3-dimethoxy-propan-2-yl)-6-(6-(3-ethylureido)-4-(4-(trifluoromethyl)thiazol-2-yl)pyridin-3-yl)-4-oxo-1,4-dihydroquinoline-3-carboxamide]",100%
12,"CCNC(=O)Nc1cc(-c2nc(C(F)(F)F)cs2)c(-c2ccc3c(c2)c(=O)c(C(=O)NCC(O)CO)cn3C2CC2)cn1 (stereo not shown) [Example 328, 1-Cyclopropyl-N-(2,3-dihydroxy-propyl)-6-(6-(3-ethylureido)-4-(4-(trifluoromethyl)thiazol-2-yl)pyridin-3-yl)-4-oxo-1,4-dihydroquinoline-3-carboxamide]",109%
13,CCNC(=O)Nc1cc(-c2nc(C(F)(F)F)cs2)c(-c2ccc3c(c2)c(=O)c(C(=O)NCCO)cn3Cc2noc(C3CC3)n2)cn1 [Example 329],97%
14,"CCNC(=O)Nc1cc(-c2nc(C(F)(F)F)cs2)c(-c2ccc3c(=O)c(C(=O)NCCO)cn(CC)c3c2)cn1 [Example 330, 1-Ethyl-7-{6-[(ethylcarbamoyl)amino]-4-[4-(trifluoromethyl)-1,3-thiazol-2-yl]pyridin-3-yl}-N-(2-hydroxyethyl)-4-oxo-1,4-dihydroquinoline-3-carboxamide]",109%
15,"CCNC(=O)Nc1cc(-c2nc(C(F)(F)F)cs2)c(-c2ccc3c(=O)c(C(=O)NCCCO)cn(CC)c3c2)cn1 [Example 331, 1-Ethyl-7-{6-[(ethylcarbamoyl)amino]-4-[4-(trifluoromethyl)-1,3-thiazol-2-yl]pyridin-3-yl}-N-(3-hydroxypropyl)-4-oxo-1,4-dihydroquinoline-3-carboxamide]",109%
16,"CCNC(=O)Nc1cc(-c2nc(C(F)(F)F)cs2)c(-c2ccc3c(=O)c(C(=O)NCCN(C)C)cn(CC)c3c2)cn1 [Example 332, N-[2-(dimethylamino)ethyl]-1-ethyl-7-{6-[(ethylcarbamoyl)amino]-4-[4-(trifluoromethyl)-1,3-thiazol-2-yl]pyridin-3-yl}-4-oxo-1,4-dihydroquinoline-3-carboxamide]",109%
17,"CCNC(=O)Nc1cc(-c2nc(C(F)(F)F)cs2)c(-c2ccc3c(=O)c(C(=O)NCCN4CCOCC4)cn(CC)c3c2)cn1 [Example 333, 1-Ethyl-7-{6-[(ethylcarbamoyl)amino]-4-[4-(trifluoromethyl)-1,3-thiazol-2-yl]pyridin-3-yl}-N-[2-(morpholin-4-yl)ethyl]-4-oxo-1,4-dihydroquinoline-3-carboxamide]",106%
18,"CCNC(=O)Nc1cc(-c2nc(C(F)(F)F)cs2)c(-c2ccc3c(=O)c(C(=O)NCCN4CCN(C)CC4)cn(CC)c3c2)cn1 [Example 334, 1-Ethyl-7-{6-[(ethylcarbamoyl)amino]-4-[4-(trifluoromethyl)-1,3-thiazol-2-yl]pyridin-3-yl}-N-[2-(4-methylpiperazin-1-yl)ethyl]-4-oxo-1,4-dihydroquinoline-3-carboxamide]",95%
19,"CCNC(=O)Nc1cc(-c2nc(C(F)(F)F)cs2)c(-c2ccc3c(=O)c(C(=O)NC)cn(CCC(C)C)c3c2)cn1 [Example 335, 7-{6-[(ethylcarbamoyl)amino]-4-[4-(trifluoromethyl)-1,3-thiazol-2-yl]pyridin-3-yl}-N-methyl-1-(3-methylbutyl)-4-oxo-1,4-dihydroquinoline-3-carboxamide]",107%
20,"CCNC(=O)Nc1cc(-c2nc(C(F)(F)F)cs2)c(-c2ccc3c(=O)c(C(=O)NCCO)cn(CCC(C)C)c3c2)cn1 [Example 336, 7-{6-[(ethylcarbamoyl)amino]-4-[4-(trifluoromethyl)-1,3-thiazol-2-yl]pyridin-3-yl}-N-(2-hydroxyethyl)-1-(3-methylbutyl)-4-oxo-1,4-dihydroquinoline-3-carboxamide]",109%
21,"CCNC(=O)Nc1cc(-c2nc(C(F)(F)F)cs2)c(-c2ccc3c(=O)c(C(=O)NCCCO)cn(CCC(C)C)c3c2)cn1 [Example 337, 7-{6-[(ethylcarbamoyl)amino]-4-[4-(trifluoromethyl)-1,3-thiazol-2-yl]pyridin-3-yl}-N-(3-hydroxypropyl)-1-(3-methylbutyl)-4-oxo-1,4-dihydroquinoline-3-carboxamide]",106%
22,"CCNC(=O)Nc1cc(-c2nc(C(F)(F)F)cs2)c(-c2ccc3c(=O)c(C(=O)NCCN(C)C)cn(CCC(C)C)c3c2)cn1 [Example 338, N-[2-(dimethylamino)ethyl]-7-{6-[(ethylcarbamoyl)amino]-4-[4-(trifluoromethyl)-1,3-thiazol-2-yl]pyridin-3-yl}-1-(3-methylbutyl)-4-oxo-1,4-dihydroquinoline-3-carboxamide]",99%
23,"CCNC(=O)Nc1cc(-c2nc(C(F)(F)F)cs2)c(-c2ccc3c(=O)c(C(=O)NCCN4CCOCC4)cn(CCC(C)C)c3c2)cn1 [Example 339, 7-{6-[(ethylcarbamoyl)amino]-4-[4-(trifluoromethyl)-1,3-thiazol-2-yl]pyridin-3-yl}-1-(3-methylbutyl)-N-[2-(morpholin-4-yl)ethyl]-4-oxo-1,4-dihydroquinoline-3-carboxamide]",109%
24,"CCNC(=O)Nc1cc(-c2nc(C(F)(F)F)cs2)c(-c2ccc3c(=O)c(C(=O)NCCN4CCN(C)CC4)cn(CCC(C)C)c3c2)cn1 [Example 340, 7-{6-[(ethylcarbamoyl)amino]-4-[4-(trifluoromethyl)-1,3-thiazol-2-yl]pyridin-3-yl}-1-(3-methylbutyl)-N-[2-(4-methylpiperazin-1-yl)ethyl]-4-oxo-1,4-dihydroquinoline-3-carboxamide]",93%
25,"CCNC(=O)Nc1cc(-c2nc(C(F)(F)F)cs2)c(-c2ccc3c(=O)c(C(=O)NC)cn(CC(C)C)c3c2)cn1 [Example 341, 7-{6-[(ethylcarbamoyl)amino]-4-[4-(trifluoromethyl)-1,3-thiazol-2-yl]pyridin-3-yl}-N-methyl-1-(2-methylpropyl)-4-oxo-1,4-dihydroquinoline-3-carboxamide]",99%
